According to US20130252930A1 (BIOMARIN PHARMACEUTICAL INC., priority 2010, published 2013):
Read-outs that look alike come from different tables or passages of the source.

Tests used:
[1] = tested on: rat Cyp11B enzyme (rat adrenal mitochondria); assay: CYP11B enzymatic assay (% inhibition at 100 nM) (Biological Example 9); type: biochemical; conditions: compound at 100 nM
Protocol: Adrenals excised from Sprague Dawley rats were homogenized, and mitochondria fraction were prepared by a series of centrifugation as described in Shuji Ohno, et al. J. of Steroid Biochemistry & Molecular Biology 2002, 80, 355-363. Prepared mitochondria protein was washed and resuspended in Buffer B (0.21 M mannitol, 70 mM sucrose, 5 mM MgCl2, 0.5 mM CaCl2, 20 mM Tris-HCl (pH 7.4) and 1 mM DTT, […]). The protein concentration was determined by BCA assay and stored as 10 μL aliquots at −80° C.
The rat Cyp11B enzyme assay was performed in 96-well plates. Typical assays were carried out in total 50 μL volume that included test compounds at 100 nM concentration, 1× Buffer B, 0.5 mM NADPH, 0.1 μM 11-deoxycortisol, and 2 μL of prepared rat adrenal mitochondria (added last). Reaction without test compound served as positive control and reaction without NADPH served as negative control. Reactions were allowed to incubate at 37° C. for 60 min with gentle shaking. The reaction was stopped by directly applying the enzymatic reaction mixture (1:5 diluted in ELISA assay buffer) to ELISA plate for evaluation of cortisol concentration according to manufacturer's protocol (Assay Design).
The mean absorbance value for each sample was used to determine the corresponding concentration from the standard curve. Amount of cortisol in the negative control (reaction that dis not include NADPH) was subtracted from total cortisol. Percent inhibition (inhibition %) of the compound was calculated using normalized cortisol concentration based on following formula: 100−([Cortisol] of compound/[Cortisol] of positive control *100).

[2] = target: T1, CYP17 (human testicular microsome) (Homo sapiens, UniProt P05093); assay: CYP17 enzymatic assay (% inhibition at 1 nM) (Biological Example 12); type: biochemical
T1 construct: using microsomal fraction from human testis (Celsis Cat #S00110) as the enzyme source; tissue Celsis S00110; host or cells: human testis microsomal fraction
T1 sequence (P05093 1-508): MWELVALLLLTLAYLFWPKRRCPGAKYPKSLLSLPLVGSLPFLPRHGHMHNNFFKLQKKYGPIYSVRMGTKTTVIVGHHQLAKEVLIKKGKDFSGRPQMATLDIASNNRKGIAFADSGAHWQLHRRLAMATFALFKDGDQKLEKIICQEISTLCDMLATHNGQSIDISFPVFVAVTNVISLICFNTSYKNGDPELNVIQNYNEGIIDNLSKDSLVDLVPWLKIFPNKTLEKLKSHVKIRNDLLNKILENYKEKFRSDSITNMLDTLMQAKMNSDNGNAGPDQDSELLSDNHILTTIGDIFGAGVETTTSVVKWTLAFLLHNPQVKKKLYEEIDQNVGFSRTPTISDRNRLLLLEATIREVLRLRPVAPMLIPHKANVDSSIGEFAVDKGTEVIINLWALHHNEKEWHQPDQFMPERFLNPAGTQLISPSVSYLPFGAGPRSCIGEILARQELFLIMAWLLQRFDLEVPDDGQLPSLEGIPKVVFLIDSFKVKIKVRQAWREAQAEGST

[3] = target: T1, CYP17 (human testicular microsome); assay: CYP17 enzymatic assay (IC50) (Biological Example 4); type: biochemical; conditions: human testicular microsome, read-out: Biological Example No. 4: CYP17 enzymatic assay IC50
Protocol: The assays were performed in 96-well plates. Typical assays were carried out in total 100 μL volume that included test compounds at designated concentrations, 1× reaction buffer, 0.5 mM NADPH, 1 μM 17α-hydroxypregnenolone, and 2.5 μL of diluted human testicular microsome (Celsis. Cat #S00110). Reaction without test compound served as positive control. Reactions were allowed to incubate at 37° C. for 90 minutes with gentle shaking. The reaction was stopped by directly applying the enzymatic reaction mixture to ELISA plate for evaluation of DHEA concentration according to manufacturer's protocol (IBL America). A standard curve (OD450 vs. DHEA concentration) was generated using purified DHEA.

CYP17 (H295R cells) = target: T2, CYP17 (H295R cells) (Homo sapiens, UniProt P05093); assay: CYP17 cellular assay (IC50), testosterone in H295R cells (Biological Example 7); type: cell-based; conditions: H295R cells, read-out: Biological Example No. 7: CYP17 cellular assay IC50
T2 construct: endogenous in cells; host or cells: H295R cells
T2 sequence (P05093 1-508): T1 sequence (P05093 1-508)
Outline: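 H295R cells cultured 24 h, then exposed to compound at 100, 10, 1, 0.1 nM final in serum-free DMEM/F-12 with ITS+ and 0.1% methanol for 24 h at 37 °C. Medium testosterone measured by ELISA and plotted against compound concentration.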

[4] = target: T3, Cyp21 enzyme (Human HEK 293-Cyp21 stable transfected cells) (Homo sapiens, UniProt P08686); assay: CYP21-HEK293 enzymatic assay (IC50) (Biological Example 11); type: cell-based; conditions: HEK 293-Cyp21 cells
T3 construct: expressed in transfected cells
T3 sequence (P08686 1-495): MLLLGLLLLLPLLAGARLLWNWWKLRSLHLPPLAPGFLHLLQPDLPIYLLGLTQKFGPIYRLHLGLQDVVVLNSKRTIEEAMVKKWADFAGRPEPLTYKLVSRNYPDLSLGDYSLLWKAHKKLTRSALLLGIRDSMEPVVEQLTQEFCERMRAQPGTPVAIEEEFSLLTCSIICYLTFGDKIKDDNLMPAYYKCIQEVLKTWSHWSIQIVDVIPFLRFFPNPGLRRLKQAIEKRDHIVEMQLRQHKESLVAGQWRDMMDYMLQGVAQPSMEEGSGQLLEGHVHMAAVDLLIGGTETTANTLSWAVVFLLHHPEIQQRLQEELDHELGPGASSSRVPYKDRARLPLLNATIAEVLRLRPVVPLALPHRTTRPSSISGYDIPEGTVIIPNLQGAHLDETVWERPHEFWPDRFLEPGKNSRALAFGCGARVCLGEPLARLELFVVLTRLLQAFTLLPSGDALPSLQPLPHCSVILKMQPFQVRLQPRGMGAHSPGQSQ
Protocol: This assay was used to determine compound activity against Cyp21 enzyme. […] The next day, 20 μL medium was carefully removed and 10 μL of 10× pre-made compounds in DMEM+10% FBS+10% methanol was transferred to the wells to final concentrations of 1000, 100, 10, 1, or 0.1 nM. Mock treatment was 1% methanol in growth media and the cells were left at 37° C., 5% CO2 for 5 hr. After the incubation, 10 μL of substrate progesterone (Sigma) was added to the wells to make a final concentration of 10 μM. The cells were incubated the cells at 37° C. for 20 hr. At the end of incubation, 90 μL of conditioned media was removed to measure DOC level by ELISA.
The next day, the plates were washed twice with 250 μl of wash solution (0.015M PBS pH 7.4 containing 0.05% Tween 20). After being washed, the wells were blocked with 250 μL blocking buffer (3% BSA in 0.025M PBS, pH 7.4) at 37° C. for 2 h. The plates were washed again 3 times as before, and then 90 μL of sample /standards (prepared in complete growth media) was added into the appropriate wells followed by 10 μL of antibody solution (1:450 rabbit anti-DOC in 0.6% BSA/PBS). The plates were incubated at room temperature for 2 h on a shaker. The contents of the wells were removed and the plate was washed 4 times. After the final wash, 100 μL of secondary antibody (1:12000 HRP-goat-anti-rabbit IgG conjugate 0.6% BSA/PBS) was added into each well. […] The plate was washed again 4 times and 100 μL of TMB substrate solution was added to each well. The plate was incubated at room temperature for 10 min. 100 μL of stop solution was added to each well and the optical density was read at 450 nm.
The mean absorbance value for each sample was used to determine the corresponding concentration from the standard curve. Data was analyzed with “log(antagonist) vs response variable slope” under “non-linear regression analysis” using Prism5 software.

[5] = Human liver microsome stability assay (Biological Example 8b); conditions: liver microsomes, pH 7.4
Protocol: The reaction was started with addition of excess NADPH (5 mg/mL, 15 μL in 0.1 M potassium phosphate buffer, 1.0 mM EDTA, pH 7.4), the total volume is 45 μL (compound final concentration was 1 μM). […] 50 μL of the supernatant was transferred from each well into a 96-well sample plate containing 50 μL of ultra-pure water (Millipore) for LC-MS/MS analysis.

[6] = compound at 1 nM, read-out: CYP17 enzymatic assay % inhibition at 1 nM (Biological Example No. 12)
[7] = read-out: Biological Example No. 11: CYP21-HEK293 enzymatic assay IC50
[8] = compound at 1 nM, read-out: Biological Example No. 12: CYP17 enzymatic assay % inhibition at 1 nM

Row | Structure (SMILES) | CYP11B enzymatic assay % inhibition at 100 nM (Biological Example No. 9) [1] | inhibition at 0.001 µM [2, 6] | inhibition at 0.001 µM [2, 8] | Biological Example No. 9: CYP11B enzymatic assay % inhibition at 100 nM [1] | also measured
1 | CN1C(=O)C[C@@]2(C)C1=CCC1C2CC[C@]2(C)C(n3ccnc3)=CCC12 (stereo partly drawn) [Compound 186, (3aR,5aS)-6-(1H-imidazol-1-yl)-1,3a,5a-trimethyl-3,3a,3b,4,5,5a,8,8a,8b,9-decahydroindeno[5,4-e]indol-2(1H)-one] | U (U means the compound had a percent inhibition of greater than or equal to 32%) | 10 to 50% |  |  | 
2 | Cc1cncc(C2=CCC3C4CC=C5N(C)C(=O)C[C@]5(C)C4CC[C@]23C)c1 (stereo partly drawn) [Compound 188, (3aR,5aS)-1,3a,5a-trimethyl-6-(5-methylpyridin-3-yl)-3,3a,3b,4,5,5a,8,8a,8b,9-decahydroindeno[5,4-e]indol-2(1H)-one] | T (T means the compound had a percent inhibition of less than 32% when tested at 100 nM) | 10 to 50% |  |  | 
3 | CCOc1cncc(C2=CCC3C4CC=C5N(C)C(=O)C[C@]5(C)C4CC[C@]23C)c1 (stereo partly drawn) [Compound 189, (3aR,5aS)-6-(5-ethoxypyridin-3-yl)-1,3a,5a-trimethyl-3,3a,3b,4,5,5a,8,8a,8b,9-decahydroindeno[5,4-e]indol-2(1H)-one] | U (U means the compound had a percent inhibition of greater than or equal to 32%) | 10 to 50% |  |  | 
4 | C[C@]12CCNC(=O)C=C1C1(CC1)CC1C2CC[C@]2(C)C(c3cccnc3)=CCC12 (stereo partly drawn) [Compound 369, (5aR,7aS)-5a,7a-dimethyl-8-(pyridin-3-yl)-3,4,5,5a,5b,6,7,7a,10,10a,10b,11-dodecahydro-2H-spiro[cyclopenta[5,6]naphtho[1,2-d]azepine-12,1′-cyclopropan]-2-one] |  |  | 10 to 50% |  | IC50 [3]: < 11 nM; IC50 (CYP17 (H295R cells); testosterone): < 15 nM; IC50 [4, 7]: < 10 nM; half-life at 1 μM [5]: 1 to 50 min
5 | C[C@]12CCNC(=O)C=C1C1CC1[C@@H]1[C@@H]2CC[C@]2(C)C(c3cncc(F)c3)=CC[C@@H]12 (stereo partly drawn) [Compound 388, (5aR,7aS)-8-(5-fluoropyridin-3-yl)-5a,7a-dimethyl-3,4,5,5a,5b,6,7,7a,10,10a,10b,10c,11,11a-tetradecahydro-2H-cyclopenta[5,6]cyclopropa[3,4]naphtho[1,2-d]azepin-2-one] |  |  | > 50% |  | IC50 [3]: < 11 nM; IC50 (CYP17 (H295R cells); testosterone): < 15 nM; IC50 [4, 7]: > 1000 nM; half-life at 1 μM [5]: 1 to 50 min
6 | C[C@]12CC[C@H](O)CC1=CC[C@@H]1[C@@H]2CC[C@]2(C)C(n3cncc3C#N)=CC[C@@H]12 [Compound 426, 1-((3S,10R,13S)-3-hydroxy-10,13-dimethyl-2,3,4,7,8,9,10,11,12,13,14,15-dodecahydro-1H-cyclopenta[a]phenanthren-17-yl)-1H-imidazole-5-carbonitrile] |  |  | 10 to 50% | U (U means the compound had a percent inhibition of greater than or equal to 32%) | 
7 | CN1C(=O)CC[C@@]2(C)C1=CCC1C2CC[C@]2(C)C(c3cncc(F)c3)=CCC12 (stereo partly drawn) [Compound 428, (4aR,6aS)-7-(5-fluoropyridin-3-yl)-1,4a,6a-trimethyl-4,4a,4b,5,6,6a,9,9a,9b,10-decahydro-1H-indeno[5,4-f]quinolin-2(3H)-one] |  |  | 10 to 50% | U (U means the compound had a percent inhibition of greater than or equal to 32%) | 
8 | CN1C(=O)CC[C@@]2(C)C1=CC[C@@H]1[C@@H]2CC[C@]2(C)C(n3cncc3C#N)=CC[C@@H]12 [Compound 433, 1-((4aR,6aS)-1,4a,6a-trimethyl-2-oxo-2,3,4,4a,4b,5,6,6a,9,9a,9b,10-dodecahydro-1H-indeno[5,4-f]quinolin-7-yl)-1H-imidazole-5-carbonitrile] |  |  | < 10% | T (T means the compound had a percent inhibition of less than 32% when tested at 100 nM) | 
9 | C[C@]12CCCN(S(C)(=O)=O)CC1CC[C@@H]1[C@@H]2CC[C@]2(C)C(n3ccnc3)=CC[C@@H]12 (stereo partly drawn) [Compound 437, (5aR,7aS)-8-(1H-imidazol-1-yl)-5a,7a-dimethyl-2-(methylsulfonyl)-1,2,3,4,5,5a,5b,6,7,7a,10,10a,10b,11,12,12a-hexadecahydrocyclopenta[5,6]naphtho[2,1-c]azepine] |  |  |  | U (U means the compound had a percent inhibition of greater than or equal to 32%) | IC50 [3]: > 25 nM
10 | CC(=O)N1CCC[C@@]2(C)[C@@H](CC[C@@H]3[C@@H]2CC[C@]2(C)C(n4ccnc4)=CC[C@@H]32)C1 [Compound 443, 1-((5aR,5bS,7aS,10aS,10bR,12aR)-8-(1H-imidazol-1-yl)-5a,7a-dimethyl-3,4,5,5a,5b,6,7,7a,10,10a,10b,11,12,12a-tetradecahydrocyclopenta[5,6]naphtho[2,1-c]azepin-2(1H)-yl)ethanone] | U (U means the compound had a percent inhibition of greater than or equal to 32%) | 10 to 50% |  |  | 
11 | COC(=O)c1cncn1C1=CCC2C3CC=C4C[C@@H](O)CC[C@]4(C)C3CC[C@]12C (stereo partly drawn) [Compound 476, methyl 1-((3S,10R,13S)-3-hydroxy-10,13-dimethyl-2,3,4,7,8,9,10,11,12,13,14,15-dodecahydro-1H-cyclopenta[a]phenanthren-17-yl)-1H-imidazole-5-carboxylate] |  |  | 10 to 50% | na (“na” means the compound was not active under the conditions tested) | 
12 | C[C@]12CCC(=O)C=C1C(F)CC1C2CC[C@]2(C)C(c3cccnc3)=CCC12 (stereo partly drawn) [D, (10R,13S)-6-fluoro-10,13-dimethyl-17-(pyridin-3-yl)-6,7,8,9,10,11,12,13,14,15-decahydro-1H-cyclopenta[a]phenanthren-3(2H)-one, reference compound] |  |  |  |  | IC50 ([3]; DHEA by ELISA): < 11 nM; IC50 (CYP17 (H295R cells); testosterone by ELISA, 24 hours): < 15 nM; IC50 ([4]; DOC by ELISA, read-out: Biological Example No. 11: CYP21-HEK293 IC50): > 1000 nM; inhibition at 0.001 µM ([2]; 1 nM compound, DHEA by ELISA, read-out: Biological Example No. 12: CYP17 percent inhibition at 1 nM): > 50%; half-life at 1 μM [5]: 1 to 50 min
